# Assay results taken from patent US6140368A, “Naphthols useful in antiviral methods” (The Regents of the University of California, priority 1998, dated 2000).
# pIC50: −log10 of the molar value. Where two headings read alike, the source gives them in different places.
# Columns and labels:
# HIV integrase [1] = target: T1, HIV integrase (Human immunodeficiency virus type 1 group M subtype B, UniProt P04585); test: biochemical; settings: read-out: Inhibition of 3' processing activity (IC50)
# HIV integrase [2] = target: T1, HIV integrase; test: biochemical; settings: read-out: Inhibition of strand transfer (IC50)
# [3] = target: HIV reverse transcriptase (Human immunodeficiency virus type 1 group M subtype B, UniProt P03366); test: Reverse transcriptase scintillation proximity assay (Example 4, Table 2); type: biochemical; settings: for remaining activity at 10 µM: 0.05 h, 10 μM inhibitor, relative to dimethyl sulfoxide = 100%, read-out: % RT activity remaining at 10 μM
# Procedure: Reverse transcriptase ("RT") activity is measured using a scintillation proximity assay kit available from Amersham Life Sciences, Inc., which uses a biotin/streptavidin bead capture system. RNA-dependent polymerase activity is measured using purified […] and a synthetic 17mer/50mer RNA-DNA template-primer containing biotin at the 5' end of the DNA. The template-primer, buffer, dNTP, and inhibitor are incubated for 10 minutes at 37° C. before the RT is added. The final 100 μl reaction mixture contains: 39 nm of template primer, buffer (40 mM tris HCl at pH 8.0, 10 mM MgCl2, 60 mM KCl, 10 mM dithiothreitol); 75 nM of each dNTP except dTTP; 25 nM dTTP and 35 nM tritium labeled d*TTP; 10 μM inhibitor; and 1.0-2.0 μg of RT. After three minute incubation, the reaction is quenched with 40 μl of 0.56M EDTA. Then 10 μl of streptavidin SPA beads (in suspension) are added and incubated at 37° C. for 10 minutes. Finally, 850 μl of a buffer containing 10 mM Tris HCl pH 7.4 and 0.15M NaCl is added. The signal is produced by biotinylated polymers incorporating d*TTP binding to the streptavidin beads which stimulate the scintillant. The amount of d*TTP incorporated in the polymer is measured with a scintillation counter.
# Compounds showing good inhibition will give a low number of counts/min (cpm). This number is related to a standard, dimethyl sulfoxide, which is given an arbitrary 100% relative activity. All cpm data in a single run are given a percent of this standard.
SMILES,pIC50 (HIV integrase [1]),pIC50 (HIV integrase [2]),remaining activity at 10 µM [3] [%],pIC50 ([3]; read-out: IC50 (RT activity))
O=C(Nc1ccc2c(O)c(N=Nc3ccccc3)c(S(=O)(=O)O)cc2c1)Nc1ccc2c(O)c(N=Nc3ccccc3)c(S(=O)(=O)O)cc2c1 [Compound 62],6.40,6.30,–,–
CCOC(=O)c1c[nH]nc1N=Nc1c(S(=O)(=O)O)cc2cc(NC(=O)Nc3ccc4c(O)c(N=Nc5n[nH]cc5C(=O)OCC)c(S(=O)(=O)O)cc4c3)ccc2c1O [Compound 64],< 5.52,< 5.52,–,–
O=C(Nc1ccc2c(O)c(N=Nc3ncn[nH]3)c(S(=O)(=O)O)cc2c1)Nc1ccc2c(O)c(N=Nc3ncn[nH]3)c(S(=O)(=O)O)cc2c1 [Compound 65],6.10,6.30,–,–
COc1cc(N=Nc2c(S(=O)(=O)O)cc3cc(NC(=O)Nc4ccc5c(O)c(N=Nc6cc(OC)c(OC)c(OC)c6)c(S(=O)(=O)O)cc5c4)ccc3c2O)cc(OC)c1OC [Compound 66],6.10,6.30,–,–
O=C(Nc1ccc2c(O)c(N=Nc3ccc(C(=O)O)cc3)c(S(=O)(=O)O)cc2c1)Nc1ccc2c(O)c(N=Nc3ccc(C(=O)O)cc3)c(S(=O)(=O)O)cc2c1 [Compound 67],7.05,6.60,–,–
O=C(O)CCc1ccc(N=Nc2c(S(=O)(=O)O)cc3cc(NC(=O)Nc4ccc5c(O)c(N=Nc6ccc(CCC(=O)O)cc6)c(S(=O)(=O)O)cc5c4)ccc3c2O)cc1 [Compound 68],6.40,6.40,–,–
O=C(Nc1ccc2c(O)c(N=Nc3ccc(F)cc3)c(S(=O)(=O)O)cc2c1)Nc1ccc2c(O)c(N=Nc3ccc(F)cc3)c(S(=O)(=O)O)cc2c1 [Compound 69],6.15,6.05,–,–
O=C(Nc1ccc2c(O)c(N=Nc3ccc(Cl)cc3)c(S(=O)(=O)O)cc2c1)Nc1ccc2c(O)c(N=Nc3ccc(Cl)cc3)c(S(=O)(=O)O)cc2c1 [Compound 70],< 5.52,< 5.52,–,–
O=C(Nc1ccc2c(O)c(N=Nc3ccc(I)cc3)c(S(=O)(=O)O)cc2c1)Nc1ccc2c(O)c(N=Nc3ccc(I)cc3)c(S(=O)(=O)O)cc2c1 [Compound 71],6.05,6.00,–,–
CC(=O)Nc1ccc(N=Nc2c(S(=O)(=O)O)cc3cc(NC(=O)Nc4ccc5c(O)c(N=Nc6ccc(NC(C)=O)cc6)c(S(=O)(=O)O)cc5c4)ccc3c2O)cc1 [Compound 72],6.00,6.30,–,–
COc1ccc(N=Nc2c(S(=O)(=O)O)cc3cc(NC(=O)Nc4ccc5c(O)c(N=Nc6ccc(OC)cc6)c(S(=O)(=O)O)cc5c4)ccc3c2O)cc1 [Compound 73],6.00,6.22,–,–
C=Cc1ccc(N=Nc2c(S(=O)(=O)O)cc3cc(NC(=O)Nc4ccc5c(O)c(N=Nc6ccc(C=C)cc6)c(S(=O)(=O)O)cc5c4)ccc3c2O)cc1 [Compound 74],5.70,5.82,–,–
O=C(O)Cc1ccc(N=Nc2c(S(=O)(=O)O)cc3cc(NC(=O)C(=O)Nc4ccc5c(O)c(N=Nc6ccc(CC(=O)O)cc6)c(S(=O)(=O)O)cc5c4)ccc3c2O)cc1 [Compound 93],6.05,6.30,–,–
O=C(O)CCc1ccc(N=Nc2c(S(=O)(=O)O)cc3cc(NC(=O)C(=O)Nc4ccc5c(O)c(N=Nc6ccc(CCC(=O)O)cc6)c(S(=O)(=O)O)cc5c4)ccc3c2O)cc1 [Compound 94],6.00,6.40,–,–
O=C(O)CCCc1ccc(N=Nc2c(S(=O)(=O)O)cc3cc(NC(=O)C(=O)Nc4ccc5c(O)c(N=Nc6ccc(CCCC(=O)O)cc6)c(S(=O)(=O)O)cc5c4)ccc3c2O)cc1 [Compound 95],6.40,6.15,–,–
O=C(Nc1ccc2c(O)c(N=Nc3cccc(C(=O)O)c3)c(S(=O)(=O)O)cc2c1)C(=O)Nc1ccc2c(O)c(N=Nc3cccc(C(=O)O)c3)c(S(=O)(=O)O)cc2c1 [Compound 96],6.30,6.40,–,–
O=C(O)CC(C(=O)O)c1ccc(N=Nc2c(S(=O)(=O)O)cc3cc(NC(=O)C(=O)Nc4ccc5c(O)c(N=Nc6ccc(C(CC(=O)O)C(=O)O)cc6)c(S(=O)(=O)O)cc5c4)ccc3c2O)cc1 (centres unmarked) [Compound 97],6.30,6.00,–,–
COc1cc(N=Nc2c(S(=O)(=O)O)cc3cc(NC(=O)C(=O)Nc4ccc5c(O)c(N=Nc6cc(OC)c(C(=O)O)cc6Cl)c(S(=O)(=O)O)cc5c4)ccc3c2O)c(Cl)cc1C(=O)O [Compound 100],6.40,6.15,–,–
COc1ccc(C(=O)O)c(N=Nc2c(S(=O)(=O)O)cc3cc(NC(=O)C(=O)Nc4ccc5c(O)c(N=Nc6c(C(=O)O)ccc(OC)c6OC)c(S(=O)(=O)O)cc5c4)ccc3c2O)c1OC [Compound 101],6.30,5.70,–,–

SMILES,pIC50 (HIV integrase [1]),pIC50 (HIV integrase [2]),remaining activity at 10 µM [3] [%],pIC50 ([3]; read-out: IC50 (RT activity))
COc1cc(C(=O)O)c(N=Nc2c(S(=O)(=O)O)cc3cc(NC(=O)C(=O)Nc4ccc5c(O)c(N=Nc6c(C(=O)O)cc(OC)c(OC)c6OC)c(S(=O)(=O)O)cc5c4)ccc3c2O)c(OC)c1OC [Compound 102],6.22,6.15,–,–
O=C(Nc1ccc2c(O)c(N=Nc3cc(C(=O)O)ccc3C(=O)O)c(S(=O)(=O)O)cc2c1)C(=O)Nc1ccc2c(O)c(N=Nc3cc(C(=O)O)ccc3C(=O)O)c(S(=O)(=O)O)cc2c1 [Compound 104],6.22,6.40,–,–
O=C(Nc1ccc2c(O)c(N=Nc3ccccc3)c(S(=O)(=O)O)cc2c1)C(=O)Nc1ccc2c(O)c(N=Nc3ccccc3)c(S(=O)(=O)O)cc2c1 [Compound 106],5.82,6.40,–,–
O=C(O)CCC(NC(=O)c1ccc(N=Nc2c(S(=O)(=O)O)cc3cc(NC(=O)C(=O)Nc4ccc5c(O)c(N=Nc6ccc(C(=O)NC(CCC(=O)O)C(=O)O)cc6)c(S(=O)(=O)O)cc5c4)ccc3c2O)cc1)C(=O)O (centres unmarked) [Compound 107],6.15,6.30,–,–
CC(=O)Nc1ccc(N=Nc2c(S(=O)(=O)O)cc3cc(NC(=O)C(=O)Nc4ccc5c(O)c(N=Nc6ccc(NC(C)=O)cc6)c(S(=O)(=O)O)cc5c4)ccc3c2O)cc1 [Compound 108],6.00,6.15,–,–
COc1cc(N=Nc2c(S(=O)(=O)O)cc3cc(NC(=O)C(=O)Nc4ccc5c(O)c(N=Nc6cc(OC)c(OC)c(OC)c6)c(S(=O)(=O)O)cc5c4)ccc3c2O)cc(OC)c1OC [Compound 110],5.96,6.40,–,–
O=C(O)/C=C/c1ccc(N=Nc2c(S(=O)(=O)O)cc3cc(Nc4c(Nc5ccc6c(O)c(N=Nc7ccc(/C=C/C(=O)O)cc7)c(S(=O)(=O)O)cc6c5)c(=O)c4=O)ccc3c2O)cc1 [Compound 185],–,–,0.6,–
O=C(O)c1ccc(N=Nc2c(S(=O)(=O)O)cc3cc(Nc4c(Nc5ccc6c(O)c(N=Nc7ccc(C(=O)O)cc7)c(S(=O)(=O)O)cc6c5)c(=O)c4=O)ccc3c2O)cc1 [Compound 186],–,–,0.5,–
O=C(O)Cc1ccc(N=Nc2c(S(=O)(=O)O)cc3cc(Nc4c(Nc5ccc6c(O)c(N=Nc7ccc(CC(=O)O)cc7)c(S(=O)(=O)O)cc6c5)c(=O)c4=O)ccc3c2O)cc1 [Compound 187],–,–,0.3,–
O=C(O)CCc1ccc(N=Nc2c(S(=O)(=O)O)cc3cc(Nc4c(Nc5ccc6c(O)c(N=Nc7ccc(CCC(=O)O)cc7)c(S(=O)(=O)O)cc6c5)c(=O)c4=O)ccc3c2O)cc1 [Compound 188],–,–,0.3,–
O=C(O)CCCc1ccc(N=Nc2c(S(=O)(=O)O)cc3cc(Nc4c(Nc5ccc6c(O)c(N=Nc7ccc(CCCC(=O)O)cc7)c(S(=O)(=O)O)cc6c5)c(=O)c4=O)ccc3c2O)cc1 [Compound 189],–,–,1,–
O=C(O)c1cccc(N=Nc2c(S(=O)(=O)O)cc3cc(Nc4c(Nc5ccc6c(O)c(N=Nc7cccc(C(=O)O)c7)c(S(=O)(=O)O)cc6c5)c(=O)c4=O)ccc3c2O)c1 [Compound 190],–,–,0.5,–
O=C(O)CC(C(=O)O)c1ccc(N=Nc2c(S(=O)(=O)O)cc3cc(Nc4c(Nc5ccc6c(O)c(N=Nc7ccc(C(CC(=O)O)C(=O)O)cc7)c(S(=O)(=O)O)cc6c5)c(=O)c4=O)ccc3c2O)cc1 (centres unmarked) [Compound 191],–,–,0.3,–
Cc1cc(C(=O)O)ccc1N=Nc1c(S(=O)(=O)O)cc2cc(Nc3c(Nc4ccc5c(O)c(N=Nc6ccc(C(=O)O)cc6C)c(S(=O)(=O)O)cc5c4)c(=O)c3=O)ccc2c1O [Compound 192],–,–,0.3,–
COc1cc(C(=O)O)ccc1N=Nc1c(S(=O)(=O)O)cc2cc(Nc3c(Nc4ccc5c(O)c(N=Nc6ccc(C(=O)O)cc6OC)c(S(=O)(=O)O)cc5c4)c(=O)c3=O)ccc2c1O [Compound 193],–,–,0.4,–
O=C(O)c1c(F)c(F)c(N=Nc2c(S(=O)(=O)O)cc3cc(Nc4c(Nc5ccc6c(O)c(N=Nc7c(F)c(F)c(C(=O)O)c(F)c7F)c(S(=O)(=O)O)cc6c5)c(=O)c4=O)ccc3c2O)c(F)c1F [Compound 194],–,–,–,6.36
O=c1c(Nc2ccc3cc(S(=O)(=O)O)cc(O)c3c2)c(Nc2ccc3cc(S(=O)(=O)O)cc(O)c3c2)c1=O [Compound 198],–,–,37,–
O=C(O)/C=C/c1ccc(N=Nc2c(S(=O)(=O)O)cc3ccc(Nc4c(Nc5ccc6cc(S(=O)(=O)O)c(N=Nc7ccc(/C=C/C(=O)O)cc7)c(O)c6c5)c(=O)c4=O)cc3c2O)cc1 [Compound 199],–,–,1.2,–
